Type in all cases: biochemical
Assay [1] concerns the target T1, porcine pancreatic elastase (Sus scrofa, UniProt P00772).
T1 construct: purchased Sigma, USA
Briefly: Inhibition of porcine pancreatic elastase (hydrolysis of MeOSuc-AAA-pNA). The following applies: for hNE/PPE selectivity: ratio of PPE IC50 to hNE IC50; for IC50: substrate MeOSuc-AAA-pNA 1 mM, enzyme 15 nM, 37° C., pH8, read-out: Porcine pancreatic elastase (PPE) IC50. On the procedure: 2.3 Inhibition of Porcine Pancreatic Elastase
The ability of the peptides of the invention to inhibit the hydrolysis activity of porcine pancreatic elastase (Sigma, USA) using the synthetic tripeptidic substrate MeOSuc-AAA-pNA (Bachem, Switzerland) was determined as follows:
The above substrate (1 mM) and […] porcine pancreatic elastase (15 nM) were incubated at 37° C. with serial dilutions of the peptides (0.5% DMSO final) in assay buffer (50 mM Tris, pH8, 100 mM NaCl, 0.01% Tween20). The release of pNA was followed by monitoring the change in absorbance at 405 nm for 30 minutes. Control assays with the same assay set-up as above, but without peptide, ran linearly. The dose-response data were fitted to the 4-parameter Hill equation providing the IC50 value using Graphpad (Prism 5).

Assay [2] deals with T2, human proteinase 3 (Homo sapiens, UniProt P24158).
T2 construct: purchased Elastin Products Company, USA
T2 sequence (P24158 28-248): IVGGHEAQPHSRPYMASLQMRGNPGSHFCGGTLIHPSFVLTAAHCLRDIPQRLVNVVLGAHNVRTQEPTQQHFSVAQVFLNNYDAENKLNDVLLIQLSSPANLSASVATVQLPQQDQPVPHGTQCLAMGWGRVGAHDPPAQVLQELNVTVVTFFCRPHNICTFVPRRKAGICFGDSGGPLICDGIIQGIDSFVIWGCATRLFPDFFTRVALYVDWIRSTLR
Briefly: Inhibition of human proteinase 3 (substrate Boc-Ala-Ala-Nva-SBzl). The following applies: for hNE/hPr3 selectivity: ratio of hPr3 IC50 to hNE IC50; for IC50: substrate Boc-Ala-Ala-Nva-SBzl 1 mM, enzyme 10 nM, 37° C., pH7.4, read-out: Human proteinase 3 (hPr3) IC50. On the procedure: 2.4 Inhibition of Human Proteinase 3
The inactivation of human proteinase 3 (Elastin Products Company, USA) by the peptides of the invention using synthetic tripeptidic substrate Boc-Ala-Ala-Nva-SBzl (Elastin Products Company, USA) was determined as follows:
The above substrate (1 mM), 4,4′-dithiodipyridine (250 μM) and human proteinase 3 (10 nM) were incubated at 37° C. with serial dilutions of the peptides (0.5% DMSO final) in assay buffer (50 mM Tris, pH7.4, 150 mM NaCl, 0.01% Tween20). The reaction process was followed by monitoring the change in absorbance at 340 nm for 30 minutes. Control assays with the same assay set-up as above, but without peptide, ran linearly. The dose-response data were fitted to the 4-parameter Hill equation providing the IC50 value using Graphpad (Prism 5).

Assay [3] deals with T3, human neutrophil elastase (Homo sapiens, UniProt P08246).
T3 construct: purchased Serva Electrophoresis, Germany
T3 sequence (P08246 30-267): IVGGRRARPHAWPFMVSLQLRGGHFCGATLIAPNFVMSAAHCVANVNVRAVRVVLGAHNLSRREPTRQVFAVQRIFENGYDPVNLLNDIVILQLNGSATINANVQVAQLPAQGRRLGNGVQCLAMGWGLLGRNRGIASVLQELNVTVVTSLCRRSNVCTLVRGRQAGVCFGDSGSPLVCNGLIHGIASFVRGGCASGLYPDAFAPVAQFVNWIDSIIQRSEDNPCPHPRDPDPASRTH
Briefly: Inhibition of human neutrophil elastase (hydrolysis of MeOSuc-AAPV-pNA). As to conditions: substrate MeOSuc-AAPV-pNA 0.3 mM, enzyme 10 nM, 37° C., pH 8; read-out: Human neutrophil elastase (hNE) IC50. As for the experimental part:
2.2 Inhibition of Human Neutrophil Elastase
The ability of the peptides of the invention to inhibit the hydrolysis activity of human neutrophil elastase (Serva Electrophoresis, Germany) using the synthetic tetrapeptidic substrate MeOSuc-AAPV-pNA (Bachem, Switzerland) was determined as follows:
The above substrate (0.3 mM) and human neutrophil elastase (10 nM) were incubated at 37° C. with serial dilutions of the peptides (1% DMSO final) in assay buffer (50 mM Tris, pH 8, 300 mM NaCl, 0.01% Tween20). The release of pNA was followed by monitoring the change in absorbance at 405 nm for 30 minutes. Control assays with the same assay set-up as above, but without peptide, ran linearly. The dose-response data were fitted to the 4-parameter Hill equation providing the IC50 value using Graphpad (Prism 5).

Where a SMILES comes first, the peptide text is derived from it. [ ]: non-standard residue; d: D form. Oic = O=C(O)[C@@H]1C[C@@H]2CCCC[C@@H]2N1; Gly(octyl) = CCCCCCCC[C@H](N)C(=O)O; N(CH2CH2COOH)Gly = O=C(O)CCNCC(=O)O; hTyr = N[C@@H](CCc1ccc(O)cc1)C(=O)O; AllylGly = C=CC[C@H](N)C(=O)O; Dab = NCC[C@H](N)C(=O)O

Results on nine compounds are retold here after patent publication US10273267B2, “Beta-hairpin peptidomimetics as selective elastase inhibitors” (POLYPHOR AG, priority 2013, dated 2019).

T1 sequence (P00772 27-266): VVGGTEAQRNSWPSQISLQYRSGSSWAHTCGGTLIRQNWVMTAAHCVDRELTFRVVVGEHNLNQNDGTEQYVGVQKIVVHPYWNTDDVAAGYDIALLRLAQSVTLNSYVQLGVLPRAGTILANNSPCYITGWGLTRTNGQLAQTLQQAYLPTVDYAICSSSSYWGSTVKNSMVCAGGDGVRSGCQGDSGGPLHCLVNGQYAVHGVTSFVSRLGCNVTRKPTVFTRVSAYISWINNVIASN

As to `CCCCCCCC[C@@H]1NC(=O)[C@@H](CCC(=O)O)NC(=O)[C@H]2CCCN2C(=O)[C@H]([C@@H](C)O)NC(=O)[C@H](CCCCN)NC(=O)[C@H](CCC(N)=O)NC(=O)[C@@H]2CCCN2C(=O)[C@@H]2CCCN2C(=O)[C@H]([C@@H](C)CC)NC(=O)[C@H](CO)NC(=O)[C@H](C)NC(=O)[C@H]([C@@H](C)O)NC(=O)[C@H](CCC(=O)O)NC1=O` [Example 40, Cyclo(-OctGly-Glu-Thr-Ala-Ser-Ile-Pro-Pro-Gln-Lys-Thr-^DPro-^DGlu-)] (cyclo([Gly(octyl)]ETASIPPQKT[dP][dE])), in assay [1], the hNE/PPE selectivity is recorded as greater than 76923 and the IC50 is greater than 100 µM. Moreover, in assay [2], the hNE/hPr3 selectivity was greater than 76923 and the IC50 was greater than 100 µM. Besides, the 50% inhibitory concentration (IC50) in assay [3] was found to be 1.3 nM.

As for `CC[C@H](C)[C@@H]1NC(=O)[C@H](CO)NC(=O)[C@H](C)NC(=O)[C@H]([C@@H](C)O)NC(=O)[C@H](CCc2ccc(O)cc2)NC(=O)[C@H](CCCNC(=N)N)NC(=O)[C@@H]2CCCN2C(=O)[C@H]2CCCN2C(=O)[C@H]([C@@H](C)O)NC(=O)[C@H](CCCCN)NC(=O)[C@H](CCC(N)=O)NC(=O)[C@@H]2C[C@@H]3CCCC[C@@H]3N2C(=O)[C@@H]2CCCN2C1=O` [Example 42] (cyclo(R[hTyr]TASIP[Oic]QKT[dP]P)), the hNE/PPE selectivity in assay [1] is on record as greater than 20833. Further, the IC50 in assay [1] was greater than 100 µM; in assay [2], greater than 100 µM; in assay [3], 4.8 nM. Besides, in assay [2], the hNE/hPr3 selectivity is recorded as greater than 20833.

On to `C=CC[C@@H]1NC(=O)[C@H]([C@@H](C)O)NC(=O)[C@H](CCC(=O)O)NC(=O)[C@H](CCC(=O)N[C@@H](Cc2ccccc2)C(=O)O)NC(=O)[C@@H]2CCCN2C(=O)[C@H]2CCCN2C(=O)[C@H](Cc2ccc(O)cc2)NC(=O)[C@H](CCCCN)NC(=O)[C@H](CCC(N)=O)NC(=O)[C@@H]2CCCN2C(=O)[C@@H]2CCCN2C(=O)[C@H]([C@@H](C)CC)NC(=O)[C@H](CO)NC1=O` [Example 17, Cyclo(-Glu(Phe)-Glu-Thr-AllylGly-Ser-Ile-Pro-Pro-Gln-Lys-Tyr-^DPro-Pro-)] (cyclo(E(Phe)ET[AllylGly]SIPPQKY[dP]P)), for which, in assay [1], the hNE/PPE selectivity is given as 2080 and the 50% inhibitory concentration (IC50) was found to be 31.2 µM. Further, in assay [2], the hNE/hPr3 selectivity came to 4013 and the half-maximal inhibitory concentration (IC50) turned out to be 60.2 µM. In assay [3], the IC50 was 15 nM.

For the compound `CCCCCCCC[C@@H]1NC(=O)[C@@H]2CCCN2C(=O)[C@H]2CCCN2C(=O)[C@H]([C@@H](C)O)NC(=O)[C@H](CCCCN)NC(=O)[C@H](CCC(N)=O)NC(=O)[C@@H]2CCCN2C(=O)CN(CCC(=O)O)C(=O)[C@H]([C@@H](C)CC)NC(=O)[C@H](CO)NC(=O)[C@H](C)NC(=O)[C@H]([C@@H](C)O)NC(=O)[C@H](CCC(=O)O)NC1=O` [Example 7, Cyclo(-OctGly-Glu-Thr-Ala-Ser-Ile-Nglu-Pro-Gln-Lys-Thr-^DPro-Pro-)] (cyclo([Gly(octyl)]ETASI[N(CH2CH2COOH)Gly]PQKT[dP]P)), in assay [1], the hNE/PPE selectivity was 295 and the IC50 is 3.92 µM. In assay [2], the hNE/hPr3 selectivity is given as 305 and the IC50 is 4.06 µM. In addition, the half-inhibitory concentration (IC50) in assay [3] came to 13.3 nM.

On to `CCCCCCCC[C@@H]1NC(=O)[C@@H]2CCCN2C(=O)[C@H]2CCCN2C(=O)[C@H](CC(N)=O)NC(=O)[C@H](CCCCN)NC(=O)[C@H](CCC(N)=O)NC(=O)[C@@H]2CCCN2C(=O)[C@@H]2CCCN2C(=O)[C@H]([C@@H](C)CC)NC(=O)[C@H](CO)NC(=O)[C@H](C)NC(=O)[C@H]([C@@H](C)O)NC(=O)[C@H](CCc2ccc(O)cc2)NC1=O` [Example 48] (cyclo([Gly(octyl)][hTyr]TASIPPQKN[dP]P)), for which, in assay [1], the hNE/PPE selectivity came out at 148 and the 50% inhibitory concentration (IC50) amounted to 0.4 µM. In addition, in assay [2], the hNE/hPr3 selectivity worked out at 407 and the IC50 was determined as 1.1 µM. For the same compound, the IC50 in assay [3] turned out to be 2.7 nM.

In the case of `C=CC[C@@H]1NC(=O)[C@H]([C@@H](C)O)NC(=O)[C@H](CCC(=O)O)NC(=O)[C@H](CCC(=O)N[C@@H](Cc2ccccc2)C(=O)O)NC(=O)[C@@H]2CCCN2C(=O)[C@H]2CCCN2C(=O)[C@H]([C@@H](C)O)NC(=O)[C@H](CCCCN)NC(=O)[C@H](CCC(N)=O)NC(=O)[C@@H]2CCCN2C(=O)[C@@H]2CCCN2C(=O)[C@H]([C@@H](C)CC)NC(=O)[C@H](CO)NC1=O` [Example 19, Cyclo(-Glu(Phe)-Glu-Thr-AllylGly-Ser-Ile-Pro-Pro-Gln-Lys-Thr-^DPro-Pro-)] (cyclo(E(Phe)ET[AllylGly]SIPPQKT[dP]P)), in assay [1], the hNE/PPE selectivity is greater than 3030 and the IC50 was greater than 100 µM. In assay [2], the hNE/hPr3 selectivity was greater than 3030 and the IC50 is greater than 100 µM. The IC50 in assay [3] was found to be 33 nM.

For the compound `CC[C@H](C)[C@@H]1NC(=O)[C@H](CO)NC(=O)[C@H](C)NC(=O)[C@H]([C@@H](C)O)NC(=O)[C@H](C(C)C)NC(=O)[C@H](CCCNC(=N)N)NC(=O)[C@H](CCC(=O)O)NC(=O)[C@H]2CCCN2C(=O)[C@H]([C@@H](C)O)NC(=O)[C@H](CCCCN)NC(=O)[C@H](CCC(N)=O)NC(=O)[C@@H]2C[C@@H]3CCCC[C@@H]3N2C(=O)[C@@H]2CCCN2C1=O` [Example 44, Cyclo(-Arg-Val-Thr-Ala-Ser-Ile-Pro-Oic-Gln-Lys-Thr-^DPro-Glu-)] (cyclo(RVTASIP[Oic]QKT[dP]E)), in assay [1], the hNE/PPE selectivity is greater than 10417 and the IC50 is greater than 100 µM. For the same compound, in assay [2], the hNE/hPr3 selectivity is reported as greater than 10417 and the IC50 is greater than 100 µM. Further, in assay [3], the IC50 came out at 9.6 nM.

On to `CCCCCCCC[C@@H]1NC(=O)[C@H](Cc2ccc(O)cc2)NC(=O)[C@@H](CO)NC(=O)[C@H]([C@@H](C)O)NC(=O)[C@H](CCCCN)NC(=O)[C@H](CCC(N)=O)NC(=O)[C@@H]2CCCN2C(=O)[C@@H]2CCCN2C(=O)[C@H]([C@@H](C)CC)NC(=O)[C@H](CO)NC(=O)[C@H](C)NC(=O)[C@H]([C@@H](C)O)NC(=O)[C@H](CCC(=O)O)NC1=O` [Example 31, Cyclo(-OctGly-Glu-Thr-Ala-Ser-Ile-Pro-Pro-GI n-Lys-Thr-^DSer-Tyr-)] (cyclo([Gly(octyl)]ETASIPPQKT[dS]Y)), for which the hNE/PPE selectivity in assay [1] was 2275. The concentration for half-maximal inhibition (IC50) in assay [1] was found to be 52.1 µM; in assay [2] it was 32.8 µM; in assay [3], 22.9 nM. Besides, in assay [2], the hNE/hPr3 selectivity was 1432.

Turning to `CC[C@H](C)[C@@H]1NC(=O)[C@H](CO)NC(=O)[C@H](C)NC(=O)[C@H]([C@@H](C)O)NC(=O)[C@H](CCC(=O)O)NC(=O)[C@H](CCNC(=O)[C@@H](N)Cc2ccccc2)NC(=O)[C@@H]2CCCN2C(=O)[C@H]2CCCN2C(=O)[C@H](Cc2ccc(O)cc2)NC(=O)[C@H](CCCCN)NC(=O)[C@H](CCC(N)=O)NC(=O)[C@@H]2CCCN2C(=O)[C@@H]2CCCN2C1=O` [Example 9, Cyclo(-Dab(Phe)-Glu-Thr-Ala-Ser-Ile-Pro-Pro-Gln-Lys-Tyr-^DPro-Pro-)] (cyclo([Dab](Phe)ETASIPPQKY[dP]P)), the hNE/PPE selectivity in assay [1] is given as 215. The half-inhibitory concentration (IC50) in assay [1] was 3.72 µM; in assay [2] it was 12.3 µM; in assay [3], 17.3 nM. In assay [2], the hNE/hPr3 selectivity is reported as 711.

As usually defined, the IC50 is the midpoint of a concentration-inhibition curve.
